Among the data in BindingDB's records for doi:10.1016/j.bmcl.2005.05.131 (Naeja Pharmaceutical, 2005) are IC50 values, retold here.

In assay [1] the target is T1, Cyclin-dependent kinase 4/G1/S-specific cyclin-D1 [L188C] (Homo sapiens, UniProt P11802). Kind of assay: CDKs Assay.
Assay [2] addresses T1, Cyclin-dependent kinase 4/G1/S-specific cyclin-D1 [L188C].

Broadly, the IC50 is the concentration needed to halve the response being measured. For the compound `COc1ccc2cnc(Nc3ccc(N4CCC(N)C4)cc3)nc2c1C1CCCC1` (configuration not stated) [N-[4-(3-aminopyrrolidin-1-yl)phenyl]-8-cyclopentyl-7-methoxyquinazolin-2-amine], the midpoint of inhibition in assay [1], the IC50, lay at 115 nM.

`COc1ccc2cnc(Nc3ccc(N4CCCCC4)cc3)nc2c1C1CCCC1` [8-cyclopentyl-7-methoxy-N-[4-(piperidin-1-yl)phenyl]quinazolin-2-amine]: the IC50 in assay [1] was 11 nM.

`COc1ccc2cnc(Nc3ccc(N4CCCC4)cc3)nc2c1C(C)C` [7-methoxy-8-(propan-2-yl)-N-[4-(pyrrolidin-1-yl)phenyl]quinazolin-2-amine] returned a concentration for half-maximal inhibition (IC50) in assay [2] of 560 nM.

Take `COc1ccc2cnc(Nc3ccc(N4CCN(C(=O)CN)CC4)cc3)nc2c1C1CCCC1` [2-amino-1-(4-{4-[(8-cyclopentyl-7-methoxyquinazolin-2-yl)amino]phenyl}piperazin-1-yl)ethan-1-one]: it took 2 nM to reach half-maximal inhibition in assay [1] (IC50).

Compound `CC(C)c1c(O)ccc2cnc(Nc3ccccc3)nc12` [2-(phenylamino)-8-(propan-2-yl)quinazolin-7-ol] had an IC50 in assay [1] of 325 nM.

In assay [1], `COc1ccc2cnc(Nc3ccc(N4CCNCC4)cc3)nc2c1C1CCCC1` [8-cyclopentyl-7-methoxy-N-[4-(piperazin-1-yl)phenyl]quinazolin-2-amine] came in with an IC50 of 1 nM.

For `COc1ccc2cnc(Nc3ccccc3)nc2c1C(C)C` [7-methoxy-N-phenyl-8-(propan-2-yl)quinazolin-2-amine], in assay [2], the IC50 was 125 nM.

Compound `COc1ccc2cnc(Nc3ccc(N4CCC(N)C4)cc3)nc2c1C(C)C` (configuration not stated) [N-[4-(3-aminopyrrolidin-1-yl)phenyl]-7-methoxy-8-(propan-2-yl)quinazolin-2-amine] had an IC50 in assay [2] of 11 nM.

In assay [2], `COc1ccc2cnc(Nc3ccc(N4CCCCC4)cc3)nc2c1C(C)C` [7-methoxy-N-[4-(piperidin-1-yl)phenyl]-8-(propan-2-yl)quinazolin-2-amine] showed an IC50 of 52 nM.

With `COc1ccc2cnc(Nc3ccc(N4CCN(C(C)=O)CC4)cc3)nc2c1C1CCCC1` [1-(4-{4-[(8-cyclopentyl-7-methoxyquinazolin-2-yl)amino]phenyl}piperazin-1-yl)ethan-1-one], in assay [1], the midpoint of inhibition, the IC50, lay at 2 nM.

On to `COc1ccc2cnc(Nc3ccc(N4CCCC4)cc3)nc2c1C1CCCC1` [8-cyclopentyl-7-methoxy-N-[4-(pyrrolidin-1-yl)phenyl]quinazolin-2-amine], for which inhibition in assay [1] was half-maximal at 1750 nM (IC50).

With `COc1ccc2cnc(Nc3ccc(N4CCN(C(=O)CN)CC4)cc3)nc2c1C(C)C` [2-amino-1-[4-(4-{[7-methoxy-8-(propan-2-yl)quinazolin-2-yl]amino}phenyl)piperazin-1-yl]ethan-1-one], inhibition in assay [1] was half-maximal at 10 nM (IC50).

In assay [2], `COc1ccc2cnc(Nc3ccc(N4CCN(C(C)=O)CC4)cc3)nc2c1C(C)C` [1-[4-(4-{[7-methoxy-8-(propan-2-yl)quinazolin-2-yl]amino}phenyl)piperazin-1-yl]ethan-1-one] yielded a 50% inhibitory concentration (IC50) of 25 nM.

In assay [1], `COc1ccc2cnc(Nc3ccc(N4CCNCC4)c(F)c3)nc2c1C1CCCC1` [8-cyclopentyl-N-[3-fluoro-4-(piperazin-1-yl)phenyl]-7-methoxyquinazolin-2-amine] returned an IC50 of 4 nM.

Compound `COc1ccc2cnc(Nc3ccc(N4CCOCC4)cc3)nc2c1C(C)C` [7-methoxy-N-[4-(morpholin-4-yl)phenyl]-8-(propan-2-yl)quinazolin-2-amine] registered an IC50 in assay [2] of 52 nM. That is a double-digit nanomolar value.

`COc1ccc2cnc(Nc3ccc(N4CCNCC4)cc3)nc2c1C(C)C` [7-methoxy-N-[4-(piperazin-1-yl)phenyl]-8-(propan-2-yl)quinazolin-2-amine]: 16 nM corresponded to half-maximal inhibition in assay [2] (IC50).

In the case of `COc1ccc2cnc(Nc3ccc(N4CCOCC4)cc3)nc2c1C1CCCC1` [8-cyclopentyl-7-methoxy-N-[4-(morpholin-4-yl)phenyl]quinazolin-2-amine], in assay [1], inhibition was half-maximal at 18 nM (IC50).
